Laboratory results: ChEMBL document CHEMBL1150275, “Pharmacological and pharmacokinetic characterization of 2-piperazine-alpha-isopropyl benzylamine derivatives as melanocortin-4 receptor antagonists” (Bioorg Med Chem, 2008)
Values belong to the compound of their own block, whether it stands above or below them.

Legend:
physchem = settings: buffer, pH 7.4
Caco-2 = experiment: Apparent permeability across human Caco-2 cells; type: ADME, cell-based
[1] = Tmax in mouse at 5 mg/kg, iv and 10 mg/kg, po; type: ADME, organism-based; settings: in vivo
[2] = Oral bioavailability in mouse at 10 mg/kg; type: ADME, organism-based; settings: in vivo
[3] = Cmax in mouse at 5 mg/kg, iv and 10 mg/kg, po; type: ADME, organism-based; settings: in vivo
[4] = Volume of distribution in mouse at 5 mg/kg, iv and 10 mg/kg, po; type: ADME, organism-based; settings: in vivo
[5] = Ratio of drug level in brain to plasma in mouse at 5 mg/kg, iv after 1 hr; type: ADME, organism-based; parameters: dose 5 mg/kg, route intravenous
[6] = Drug level in mouse brain at 5 mg/kg, iv after 1 hr; type: ADME, organism-based; parameters: dose 5 mg/kg, route intravenous; settings: read-out: Drug uptake
[7] = Ratio of drug level in brain to plasma in mouse at 5 mg/kg, iv after 4 hrs; type: ADME, organism-based; parameters: dose 5 mg/kg, route intravenous
[8] = Drug level in mouse brain at 5 mg/kg, iv after 4 hrs; type: ADME, organism-based; parameters: dose 5 mg/kg, route intravenous; settings: read-out: Drug uptake
[9] = AUC in mouse at 10 mg/kg, po; type: ADME, organism-based; parameters: dose 10 mg/kg, route oral; settings: plasma
[10] = Ratio of AUC in brain to plasma in mouse at 5 mg/kg, iv and 10 mg/kg, po; type: ADME, organism-based
[11] = Drug level in LLC tumor bearing C57BL/6J mouse brain at 20 mg/kg, po twice daily after 12 hrs on day 1 of administration; type: ADME, organism-based; parameters: dose 20 mg/kg, route oral
Brain [12] = experiment: AUC in rat brain at 10 mg/kg, po; type: ADME, organism-based; parameters: dose 10 mg/kg, route oral; settings: in vivo
[13] = Drug level in LLC tumor bearing C57BL/6J mouse plasma at 20 mg/kg, po twice daily after 2 hrs on day 1 of administration; type: ADME, organism-based; parameters: dose 20 mg/kg, route oral
Brain [14] = experiment: AUC in mouse brain at 5 mg/kg, iv and 10 mg/kg, po; type: ADME, organism-based; settings: in vivo
[15] = Drug level in mouse brain at 10 mg/kg, po after 4 hrs; type: ADME, organism-based; parameters: dose 10 mg/kg, route oral; settings: read-out: Drug uptake
[16] = Drug level in LLC tumor bearing C57BL/6J mouse plasma at 20 mg/kg, po twice daily after 12 hrs on day 1 of administration; type: ADME, organism-based; parameters: dose 20 mg/kg, route oral
[17] = Drug level in rat brain at 10 mg/kg, po after 6 hrs; type: ADME, organism-based; parameters: dose 10 mg/kg, route oral; settings: read-out: Drug uptake
[18] = Cmax in mouse brain at 5 mg/kg, iv and 10 mg/kg, po; type: ADME, organism-based
[19] = Drug level in LLC tumor bearing C57BL/6J mouse plasma at 20 mg/kg, po twice daily after 12 hrs on day 4 of administration; type: ADME, organism-based; parameters: dose 20 mg/kg, route oral
[20] = Drug level in LLC tumor bearing C57BL/6J mouse plasma at 20 mg/kg, po twice daily after 24 hrs; type: ADME, organism-based; parameters: dose 20 mg/kg, route oral
[21] = Dissociation constant, pKa of the compound; type: physicochemical
[22] = Drug level in LLC tumor bearing C57BL/6J mouse plasma at 20 mg/kg, po twice daily after 24 hrs on day 4 of administration measured 14 hrs after last dose; type: ADME, organism-based; parameters: dose 20 mg/kg, route oral
[23] = Tmax in mouse brain at 5 mg/kg, iv and 10 mg/kg, po; type: ADME, organism-based
[24] = Ratio of drug level in brain to plasma in mouse at 10 mg/kg, po after 4 hrs; type: ADME, organism-based; parameters: dose 10 mg/kg, route oral
[25] = Drug level in LLC tumor bearing C57BL/6J mouse brain at 20 mg/kg, po twice daily after 24 hrs; type: ADME, organism-based; parameters: dose 20 mg/kg, route oral
[26] = Ratio of Cmax in brain to plasma in mouse at 5 mg/kg, iv and 10 mg/kg, po; type: ADME, organism-based
[27] = Drug level in LLC tumor bearing C57BL/6J mouse brain at 20 mg/kg, po twice daily after 24 hrs on day 4 of administration measured 14 hrs after last dose; type: ADME, organism-based; parameters: dose 20 mg/kg, route oral
[28] = Ratio of drug level in brain to plasma in mouse at 10 mg/kg, po after 1 hr; type: ADME, organism-based; parameters: dose 10 mg/kg, route oral; settings: brain and plasma
[29] = Drug level in LLC tumor bearing C57BL/6J mouse brain at 20 mg/kg, po twice daily after 12 hrs on day of administration; type: ADME, organism-based; parameters: dose 20 mg/kg, route oral
[30] = Drug level in mouse brain at 10 mg/kg, po after 1 hr; type: ADME, organism-based; parameters: dose 10 mg/kg, route oral
[31] = Drug level in LLC tumor bearing C57BL/6J mouse brain at 20 mg/kg, po twice daily after 2 hrs on day 1 of administration; type: ADME, organism-based; parameters: dose 20 mg/kg, route oral
[32] = Drug level in LLC tumor bearing C57BL/6J mouse brain at 20 mg/kg, po twice daily after 2 hrs on day 4 of administration; type: ADME, organism-based; parameters: dose 20 mg/kg, route oral
[33] = Drug level in LLC tumor bearing C57BL/6J mouse plasma at 20 mg/kg, po twice daily after 2 hrs on day 4 of administration; type: ADME, organism-based; parameters: dose 20 mg/kg, route oral
Brain [34] = experiment: Drug level in LLC tumor bearing C57BL/6J mouse brain at 5 mg/kg, po; type: ADME, organism-based; parameters: dose 5 mg/kg, route oral; settings: in vivo

SMILES: Cc1ccc(N2CCN(C(=O)[C@H](C)Cc3ccc(Cl)cc3)CC2)c([C@@H](NC(=O)CCN)C(C)C)c1
- logD (physchem): 2.4
- Papp (Caco-2): 3 ×10⁻⁶ cm/s

SMILES: Cc1ccc(N2CCN(C(=O)[C@H](C)Cc3ccc(Cl)cc3C)CC2)c([C@@H](NC(=O)CCN(C)C)C(C)C)c1
- logD (physchem): 4
- Papp (Caco-2): 16 ×10⁻⁶ cm/s

SMILES: CNCCC(=O)N[C@H](c1cc(C)ccc1N1CCN(C(=O)[C@H](C)Cc2ccc(Cl)cc2)CC1)C(C)C
- logD (physchem): 2.7
- Papp (Caco-2): 12 ×10⁻⁶ cm/s

SMILES: Cc1ccc(N2CCN(C(=O)[C@H](C)Cc3ccc(Cl)cc3)CC2)c([C@@H](NC(=O)CCN(C)C)C(C)C)c1
- Kp [10]: 0.15
- concentration at 12 h [11]: 74 ng/g
- AUC (Brain [12]): 254 ng·h/g
- concentration at 2 h [13]: 360 ng/mL
- AUC (Brain [14]): 367 ng·h/g
- concentration at 4 h [15]: 18 ng/g
- concentration at 12 h [16]: 430 ng/mL
- concentration at 6 h [17]: 41 ng/g
- Cmax [18]: 91 ng/g
- concentration at 12 h [19]: 405 ng/mL
- concentration at 24 h [20]: 140 ng/mL
- logD (physchem): 3.4
- pKa [21]: 8.9
- concentration at 14 h [22]: 22 ng/mL
- Tmax [23]: 18 min
- Kp at 4 h [24]: 0.1
- Vd [4]: 4.1 L/kg
- concentration at 24 h [25]: 11 ng/g
- Kp [26]: 0.1
- Kp at 1 h [5]: 0.1
- concentration at 14 h [27]: 4.5 ng/g
- Kp at 1 h [28]: 0.1
- concentration at 12 h [29]: 25 ng/g
- Kp at 4 h [7]: 0.1
- concentration at 1 h [30]: 19 ng/g
- concentration at 2 h [31]: 27 ng/g
- concentration at 2 h [32]: 36 ng/g
- Papp (Caco-2): 41 ×10⁻⁶ cm/s
- concentration at 2 h [33]: 460 ng/mL
- Drug uptake (Brain [34]): 2 ng/mL

SMILES: COc1cc(Cl)ccc1C[C@@H](C)C(=O)N1CCN(c2ccc(Cl)cc2[C@@H](NC(=O)[C@@H](C)N)C(C)C)CC1
- Tmax [1]: 15 min
- bioavailability [2]: 16%
- Cmax [3]: 143 ng/mL
- logD (physchem): 4.5
- Vd [4]: 16 L/kg
- Kp at 1 h [5]: 0.4
- concentration at 1 h [6]: 95 ng/g
- Kp at 4 h [7]: 1
- concentration at 4 h [8]: 59 ng/g
- Papp (Caco-2): 3 ×10⁻⁶ cm/s
- AUC [9]: 397 ng·h/mL

Next, values leading:

- logD (physchem): 2.5
- Papp (Caco-2): 3 ×10⁻⁶ cm/s
SMILES: CNCCN[C@H](c1cc(C)ccc1N1CCN(C(=O)[C@H](C)Cc2ccc(Cl)cc2F)CC1)C(C)C

- Tmax [1]: 120 min
- bioavailability [2]: 30%
- Cmax [3]: 632 ng/mL
- logD (physchem): 4
- Vd [4]: 3 L/kg
- Kp at 1 h [5]: 0.1
- concentration at 1 h [6]: 59 ng/g
- Kp at 4 h [7]: 0.2
- concentration at 4 h [8]: 42 ng/g
- Papp (Caco-2): 8 ×10⁻⁶ cm/s
- AUC [9]: 2290 ng·h/mL
SMILES: CNCC(=O)N[C@H](c1cc(C)ccc1N1CCN(C(=O)[C@H](C)Cc2ccc(Cl)cc2F)CC1)C(C)C

- Tmax [1]: 30 min
- bioavailability [2]: 8%
- Cmax [3]: 55 ng/mL
- logD (physchem): 3.5
- Vd [4]: 11 L/kg
- Kp at 1 h [5]: 1.3
- concentration at 1 h [6]: 334 ng/g
- Kp at 4 h [7]: 1.3
- concentration at 4 h [8]: 102 ng/g
- AUC [9]: 208 ng·h/mL
SMILES: CNCC(=O)N[C@H](c1cc(Cl)ccc1N1CCN(C(=O)[C@H](C)Cc2ccc(Cl)cc2OC)CC1)C(C)C
